In ChEMBL document CHEMBL5331124, “Degradation of Hexokinase 2 Blocks Glycolysis and Induces GSDME-Dependent Pyroptosis to Amplify Immunogenic Cell Death for Breast Cancer Therapy” (J Med Chem, 2023):
Calls of active or inactive are those of the source. The calls are words filed in the database; no cut-off is given here.

Experiments:
[1] = target: T1, Hexokinase-2 (Mus musculus) (UniProt O08528); test: Induction of HK2 degradation in mouse 4T1 cells measured for 36 hrs by confocal microscopic analysis; format: cell-based; conditions: dose 2.0 µM
T1 sequence (whole entry): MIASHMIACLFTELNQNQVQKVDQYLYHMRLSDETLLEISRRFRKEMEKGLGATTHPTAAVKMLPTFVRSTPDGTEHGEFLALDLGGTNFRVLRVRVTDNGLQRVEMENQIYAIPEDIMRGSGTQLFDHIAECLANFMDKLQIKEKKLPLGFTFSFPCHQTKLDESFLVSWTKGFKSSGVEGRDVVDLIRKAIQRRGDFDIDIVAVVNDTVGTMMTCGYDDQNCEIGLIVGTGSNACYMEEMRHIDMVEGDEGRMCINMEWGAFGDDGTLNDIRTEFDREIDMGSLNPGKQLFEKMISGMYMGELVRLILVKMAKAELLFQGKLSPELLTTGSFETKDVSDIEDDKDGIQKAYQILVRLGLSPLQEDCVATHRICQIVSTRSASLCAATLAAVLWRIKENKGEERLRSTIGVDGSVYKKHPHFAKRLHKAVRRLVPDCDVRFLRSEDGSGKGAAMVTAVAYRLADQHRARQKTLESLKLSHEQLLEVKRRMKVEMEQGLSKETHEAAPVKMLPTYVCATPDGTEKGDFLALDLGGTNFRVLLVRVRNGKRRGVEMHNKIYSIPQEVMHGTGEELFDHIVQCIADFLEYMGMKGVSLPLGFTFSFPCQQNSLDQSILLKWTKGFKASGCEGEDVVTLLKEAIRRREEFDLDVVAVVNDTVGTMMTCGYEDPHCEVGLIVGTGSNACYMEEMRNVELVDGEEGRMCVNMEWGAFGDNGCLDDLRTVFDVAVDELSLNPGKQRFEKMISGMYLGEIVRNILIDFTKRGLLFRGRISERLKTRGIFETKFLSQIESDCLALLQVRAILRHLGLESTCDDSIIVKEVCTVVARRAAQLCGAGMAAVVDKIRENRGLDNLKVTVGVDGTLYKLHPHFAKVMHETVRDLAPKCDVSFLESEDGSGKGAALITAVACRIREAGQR

[2] = tested on: MDA-MB-231; test: Antitumor activity against human MDA-MB-231 cells xenografted in BALB/c nude mouse assessed as reduction in HK2 expression level at 50 mg/kg, ip measured after 28 days; format: functional, organism-based; conditions: time 28.0 day
[3] = Toxicity in BALB/c mouse implanted with mouse 4T1 cells assessed as effect on platelet count at 50 mg/kg, ip measured after 25 days in presence of cisplatin by routine blood test; format: organism-based; conditions: in vivo, 600 h, time 25 day

O=C1CCC(N2C(=O)c3cccc(NCCCCNC(=O)c4nn(Cc5ccc(Cl)cc5Cl)c5ccccc45)c3C2=O)C(=O)N1 (stereo not drawn)
Activity [1]: Dose-Dependent Effect | Activity [2]: Active | Activity [3]: Non-Toxic
